The source of these data is article PMC8040286 (iScience, 2021).

Data set [1] relates to GFP-expressing T. cruzi (Y) trypomastigotes released from infected CHO cells. Put plainly: microbe, parasite or virus in culture. Format: cell-based, Trypanosoma cruzi. The settings on record: for inhibition at 5 µM: read-out: Percentage inhibition of parasite release at 5 μM (low ROS).
Data set [2] deals with T. cruzi parasite release from trypomastigote-infected CHO cells. The data set is described as follows: microbe, parasite or virus in culture. Format: cell-based. The settings on record: Trypanosoma cruzi; for IC50: read-out: IC50 inhibition of parasite release, serum-free conditions (high ROS), serum-free host cell culture as used in the screening.
The nature of data set [3]: Cytotoxicity/antiproliferative MTT assay in CHO host cells. The following applies: Chinese hamster, CHO-K1 cells. Format: cell-based, hamster. A general note: Tetrazolium assays rely on reduction of a dye to a coloured formazan, in cell work by metabolically active cells.
The test system of data set [4] is T. cruzi epimastigotes (Y strain). The data set is described as follows: microbe, parasite or virus in culture. Format: cell-based, Trypanosoma cruzi. The following applies: for Selectivity Index (CC50 CHO/IC50 Epi): CC50 CHO / IC50 epimastigotes; for IC50: Trypanosoma cruzi, 72 h, read-out: IC50 epimastigotes.
The target of a further data set is casein kinase 1. The settings on record: read-out: IC50 casein kinase 1; ref Justiniano et al., 2014; cited from earlier work.
For data set [5] the following is noted: rodents; ref Li et al., 2020; cited from earlier work.
The next data set relates to CHO-K1 cells. The data set is described as follows: Cytotoxicity/antiproliferative MTT assay in CHO host cells. Format: cell-based, hamster. The settings on record: read-out: CC50 CHO cells; 72-hr incubation; anthraquinones (Table 5).
Where [6] appears, read: read-out: IC50 inhibition of parasite release, 0.5% hiFBS (low ROS), 0.5% hiFBS, low ROS, GFP-expressing trypomastigotes, 6 dpi.
[7] abbreviates: CC50 CHO cells, 72-hr incubation, anthraquinones (Table 5).
Setting [8] is: Cytotoxicity CC50 CHO cells, 72 hr (Table 3).
Where [9] appears, read: read-out: Percentage inhibition of parasite release (serum-free) at 5 μM, 5 μM, serum-free, 6 dpi, CHO host cells.
Setting [10] is: Cytotoxicity CC50 CHO cells without FBS, 72 hr, without FBS.

Like-named read-outs stand apart in the source and are kept apart here.

Regarding `O=C(Cn1ccnc1[N+](=O)[O-])NCc1ccccc1` [BZN, benznidazole, reference compound], the inhibition – broadly, the change of the read-out against control, counted positive when it falls – at 5 µM in data set [1] (Trypanosoma cruzi, CHO) worked out at 84.9 ± 4.8%. Moreover, the figures for the IC50 in data set [1] (setting [6]), in data set [2] and in data set [4] were 1.4 µM, 5 to 9 µM and 13.8 ± 2.9 µM, respectively. Also, the half-maximal cytotoxic concentration (CC50) at 72 h in data set [3] (setting [7]) and in data set [3] (setting [8]) was more than 100 µM each time. For the same molecule, the “Selectivity Index (CC50 CHO/IC50 Epi)” value in data set [4] is recorded as more than 7.
For `C=C1C(=O)O[C@@H]2/C=C(\C)CC/C=C(\C)CC[C@@H]12` [Costunolide, (6R, 7S)-costunolide], in data set [2] (setting [9]), the inhibition at 5 µM was 0%. For the same molecule, the results for the CC50 at 72 h in data set [3] (setting [10]) and in data set [3] (setting [8]) were 35.4 ± 13.8 µM and 10.9 ± 3.7 µM, respectively. Also, in data set [4], the concentration for half-maximal inhibition (IC50) (usually the concentration at which inhibition is half-maximal) came out at 7.4 ± 5.9 µM.
The like results for `C=C1CC[C@H]2C(=C)CC[C@H]3C(=C)C(=O)O[C@@H]3[C@@H]12` [Dehydrocostus lactone] were, in that order, 86.2 ± 4.1%, 12.2 ± 0.5 µM, 5.8 ± 1.9 µM and 1.4 ± 0.4 µM.
For the molecule `C=C[C@@H](O)C#CC#C[C@@H](O)/C=C\CCCCCCC` [Falcarindiol], the inhibition at 5 µM in data set [2] (read-out: Percentage inhibition of parasite release (serum-free) at 5 μM) is 0%. Further, in data set [3], the CC50 (as a rule, the concentration giving 50% cytotoxicity) at 72 h was more than 100 µM. Besides, the IC50 in data set [4] is more than 50 µM.
Turning to `CC(=O)c1c(C)cc2cccc(O)c2c1O` [Nepodin], the inhibition at 5 µM in data set [2] (setting [9]) was approximately 30%. This molecule also came in with a CC50 at 72 h in data set [3] (setting [8]) of more than 100 µM. Further, in data set [4], the IC50 was 28.7 ± 13.3 µM.
As for `C=C1[C@@H]2[C@H]3OC(=O)C(=C)[C@@H]3CCC(=C)[C@@H]2C[C@@H]1O` [Zaluzanin C], in data set [2] (setting [9]), the inhibition at 5 µM came out at 71 ± 7.5%. Also, the CC50 at 72 h in data set [3] (setting [10]) came to 19.2 ± 5.2 µM; in data set [3] (setting [8]), 6.6 ± 1.7 µM. Moreover, in data set [4], the half-maximal inhibitory concentration (IC50) turned out to be 6.7 ± 0.7 µM.
As to `O=C1c2ccccc2C(=O)c2ccccc21` [compound 1, Anthraquinone], the inhibition at 5 µM in data set [1] (Trypanosoma cruzi, CHO) is 22.2 ± 9.6%. In data set [3], this molecule gave a half-maximal cytotoxic concentration (CC50) at 72 h of more than 100 µM. Also, the IC50 in data set [4] is more than 50 µM.
On to `Cc1cc(O)c2c(c1)C(=O)c1cc(O)cc(O)c1C2=O` [compound 2, Emodin], for which the IC50 at casein kinase 1 is 130 µM; in data set [1] (Trypanosoma cruzi, CHO, read-out: IC50 inhibition of parasite release, 0.5% hiFBS (low ROS), 0.5% hiFBS, low ROS, GFP-expressing trypomastigotes, 6 dpi), 9.52 µM; in data set [1] (setting [6]), 9.5 µM; in data set [2], 0.72 µM; in data set [4], 14.1 ± 8.2 µM. In addition, the inhibition at 5 µM was 24.8 ± 12.9% in data set [1] (Trypanosoma cruzi, CHO) and 61.5 ± 18.2% in data set [2] (setting [9]). In data set [5], the oral bioavailability is reported as 5–10%. Further, the CC50 at 72 h in data set [3] (setting [7]) and in data set [3] (setting [8]) was more than 100 µM in each case. For the same molecule, the “Selectivity Index (CC50 CHO/IC50 Epi)” value in data set [4] is more than 7.
`O=C1c2ccccc2C(=O)c2c(O)c(O)cc(O)c21` [compound 3, Purpurin]: the inhibition at 5 µM in data set [1] (Trypanosoma cruzi, CHO) came to 48.3 ± 18.1%. Besides, the “selectivity index (parasite release)” value in data set [1] (basis not stated, discussion) stood at 7. In data set [3] (setting [7]), the 50% cytotoxic concentration (CC50) at 72 h stood at 59.5 ± 10.1 µM. In data set [4], the half-maximal inhibitory concentration (IC50) was more than 50 µM.
For `O=C1c2ccccc2C(=O)c2c1ccc(O)c2O` [compound 4, Alizarin], the inhibition at 5 µM in data set [1] (Trypanosoma cruzi, CHO) is 0%. Moreover, the IC50 in data set [4] is more than 50 µM.
The like results for `O=C1c2ccccc2C(=O)c2c1cc(S(=O)(=O)O)c(O)c2O` [compound 5, Alizarin Red S] were, in that order, 0% and more than 50 µM.
For `O=C1c2ccccc2C(=O)c2c(O)ccc(O)c21` [compound 6, Quinizarin], in data set [1] (Trypanosoma cruzi, CHO), the inhibition at 5 µM was 68.5 ± 19.2%. The CC50 in the data set on CHO-K1 cells is 38.1 ± 16 µM. In data set [3] (setting [7]), this molecule registered a cytotoxic concentration (CC50) at 72 h of 38 ± 16 µM. Besides, in data set [4], the “Selectivity Index (CC50 CHO/IC50 Epi)” value is listed as less than 1 and the IC50 was more than 50 µM.
For the molecule `O=C1c2cccc(O)c2C(=O)c2cccc(O)c21` [compound 7, Anthrarufin], in data set [1] (Trypanosoma cruzi, CHO), the inhibition at 5 µM came out at 0%. Moreover, the concentration for half-maximal inhibition (IC50) in data set [4] was more than 50 µM.
The like results for `O=C1c2cccc(O)c2C(=O)c2c(O)cccc21` [compound 8, Dantron] were, in that order, 0% and 5.3 ± 2.3 µM.
The like results for `O=C1c2ccc(O)cc2C(=O)c2ccc(O)cc21` [compound 9, Anthraflavic acid] were, in that order, 0% and more than 50 µM.
As for `Cc1cc(O)c2c(c1)C(=O)c1cccc(O)c1C2=O` [compound 10, Chrysophanol], the inhibition at 5 µM in data set [1] (Trypanosoma cruzi, CHO) was determined as 22.6 ± 17.2%. Further, half-maximal cytotoxicity in data set [3] (setting [7]) (CC50 at 72 h) was put at 35.7 ± 7.4 µM. Further, in data set [4], the “Selectivity Index (CC50 CHO/IC50 Epi)” value came out at 5.4 and the IC50 was determined as 6.6 ± 3.5 µM.
For `O=C1c2cccc(O)c2C(=O)c2c(O)cc(CO)cc21` [compound 11, Aloe-emodin], in that order: 44 ± 17.6%, 42 ± 15.5 µM, 2.9 and 14.5 ± 5.6 µM.
Turning to `COc1cc(O)c2c(c1)C(=O)c1cc(C)cc(O)c1C2=O` [compound 12, Physcion], in data set [1] (Trypanosoma cruzi, CHO), the inhibition at 5 µM is 0%. Besides, the IC50 in data set [4] was 6.4 ± 3.7 µM.
As for `Cc1cc2c(cc1O)C(=O)c1ccccc1C2=O` [compound 13, 2-Hydroxy-3-methylanthraquinone], the inhibition at 5 µM in data set [1] (Trypanosoma cruzi, CHO) was 0%. Further, in data set [4], the concentration for half-maximal inhibition (IC50) was more than 50 µM.
Turning to `Cc1c(O)ccc2c1C(=O)c1ccccc1C2=O` [compound 14, 2-Hydroxy-1-methylanthraquinone], in data set [1] (Trypanosoma cruzi, CHO), the inhibition at 5 µM was found to be 20.9 ± 9.7%. In data set [3] (setting [7]), the midpoint of cytotoxicity, the CC50 at 72 h, lay at 88.9 ± 8.9 µM. In data set [4], the half-inhibitory concentration (IC50) was more than 50 µM.
For the molecule `O=C(O)c1cc(O)c2c(c1)C(=O)c1cccc(O)c1C2=O` [compound 15, Rhein], the inhibition at 5 µM in data set [1] (Trypanosoma cruzi, CHO) stood at 0%. In addition, in data set [4], the half-inhibitory concentration (IC50) is more than 50 µM.
The like results for `CC(=O)Oc1cccc2c1C(=O)c1c(OC(C)=O)cc(C(=O)O)cc1C2=O` [compound 16, Diacerein] were, in that order, 0% and more than 50 µM.
For `COc1cc(N)c2c(c1N)C(=O)c1ccccc1C2=O` [compound 17, Disperse Red11], the inhibition at 5 µM in data set [1] (Trypanosoma cruzi, CHO) was 46.8 ± 25.6%. Besides, the CC50 at 72 h in data set [3] (setting [7]) was more than 100 µM. For the same molecule, in data set [4], the “Selectivity Index (CC50 CHO/IC50 Epi)” value is recorded as more than 3 and the half-inhibitory concentration (IC50) was found to be 32.9 ± 13.9 µM.
With `COc1c(O)cc2c(c1O)C(=O)c1c(cc(C)c(O)c1OC)C2=O` [compound 18, Aurantio-obtusin], the inhibition at 5 µM in data set [1] (Trypanosoma cruzi, CHO) stood at 0%. Besides, the IC50 in data set [4] is more than 50 µM.
